Paper PMC6556873, “Rapid Covalent-Probe Discovery by Electrophile-Fragment Screening” (Journal of the American Chemical Society, 2019)
Where two headings read alike, the source gives them in different places.

Tests used:
[1] = in vitro; set-up: species or system HB2, CCD841; details: human, hek293 cells
[2] = in vitro; set-up: species or system CCD841, HEK293; details: human, hb2 cells, read-out: HB-2 Cells Viability (%)
[3] = in vitro; set-up: species or system HB2, HEK293; details: human, ccd841 cells
[4] = molecular target: T1, NUDT7 (Homo sapiens, UniProt P0C024); set-up: Intact protein LC/MS covalent labelling, fragments in pools of five, 200 uM each, 4 °C; details: 24 h, 4 °C, pool of five; 200 µM; covalent
T1 construct: residues 14-235, E. coli, pNIC28-Bsa4, N-terminal His6 tag removed by TEV, construct 26672 Da
T1 sequence (P0C024 14-235): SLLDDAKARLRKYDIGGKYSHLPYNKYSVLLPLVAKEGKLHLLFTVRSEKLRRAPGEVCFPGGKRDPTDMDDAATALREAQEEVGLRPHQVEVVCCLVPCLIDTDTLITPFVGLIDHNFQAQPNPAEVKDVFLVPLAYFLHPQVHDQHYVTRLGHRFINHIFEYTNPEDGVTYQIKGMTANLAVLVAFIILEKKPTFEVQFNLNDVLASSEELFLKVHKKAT

[5] = molecular target: T2, NNMT (hNNMT) (Homo sapiens, UniProt P40261); set-up: Intact protein LC/MS covalent labelling, fragments in pools of five, 200 uM each, 4 °C; details: 24 h, 4 °C, pool of five; 200 µM; covalent
T2 construct: wild type, N-terminal His6 tag kept (no cleavage described), E. coli, construct 31248 Da
T2 sequence (P40261 1-264): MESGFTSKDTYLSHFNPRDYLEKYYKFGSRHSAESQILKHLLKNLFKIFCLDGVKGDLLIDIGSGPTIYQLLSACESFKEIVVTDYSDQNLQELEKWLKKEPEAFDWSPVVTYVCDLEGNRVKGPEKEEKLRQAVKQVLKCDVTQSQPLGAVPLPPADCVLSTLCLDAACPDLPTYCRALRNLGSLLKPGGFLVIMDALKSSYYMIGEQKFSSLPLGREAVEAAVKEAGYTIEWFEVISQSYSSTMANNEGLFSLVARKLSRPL

[6] = molecular target: T3, OTUB2 (OTUB2A) (Homo sapiens, UniProt Q96DC9); set-up: Intact protein LC/MS covalent labelling, fragments in pools of five, 200 uM each, 4 °C; details: 24 h, 4 °C, pool of five; 200 µM; covalent
T3 construct: full length residues 1-234, E. coli BL21(DE3)-R3, His tag removed by TEV, construct 27312 Da
T3 sequence (Q96DC9 1-234): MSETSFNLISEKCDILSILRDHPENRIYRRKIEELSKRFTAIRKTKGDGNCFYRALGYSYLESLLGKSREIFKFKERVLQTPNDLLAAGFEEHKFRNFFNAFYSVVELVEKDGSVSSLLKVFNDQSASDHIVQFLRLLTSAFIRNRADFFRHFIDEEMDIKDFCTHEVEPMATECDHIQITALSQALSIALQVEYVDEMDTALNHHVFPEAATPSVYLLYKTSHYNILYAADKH

[7] = molecular target: T4, BSA (Bos taurus, UniProt P02769); set-up: Intact protein LC/MS covalent labelling, fragments in pools of five, 200 uM each, 4 °C; details: 24 h, 4 °C, pool of five; 200 µM; covalent
T4 construct: gene ALB
T4 sequence (P02769 whole entry, the tested form may be a part): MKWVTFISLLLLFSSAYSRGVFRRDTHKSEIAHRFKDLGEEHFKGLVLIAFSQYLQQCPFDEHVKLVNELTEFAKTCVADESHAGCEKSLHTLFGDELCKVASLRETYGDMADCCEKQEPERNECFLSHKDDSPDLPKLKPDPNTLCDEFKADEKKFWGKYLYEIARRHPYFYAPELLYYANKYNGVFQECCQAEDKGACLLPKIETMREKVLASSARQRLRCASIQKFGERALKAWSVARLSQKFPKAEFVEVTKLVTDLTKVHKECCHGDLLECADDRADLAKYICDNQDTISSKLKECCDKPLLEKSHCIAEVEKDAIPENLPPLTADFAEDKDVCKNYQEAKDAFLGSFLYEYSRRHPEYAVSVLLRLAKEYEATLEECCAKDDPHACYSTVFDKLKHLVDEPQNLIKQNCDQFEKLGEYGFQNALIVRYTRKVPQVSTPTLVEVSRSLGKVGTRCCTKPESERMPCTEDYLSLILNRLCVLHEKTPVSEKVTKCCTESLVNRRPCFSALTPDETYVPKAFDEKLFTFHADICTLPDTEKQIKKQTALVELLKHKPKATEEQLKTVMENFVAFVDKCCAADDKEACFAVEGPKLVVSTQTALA

[8] = molecular target: T5, PCAF (Homo sapiens, UniProt Q92831); set-up: Intact protein LC/MS covalent labelling, fragments in pools of five, 200 uM each, 4 °C; details: 24 h, 4 °C, pool of five; 200 µM; covalent
T5 construct: gene KAT2B
T5 sequence (Q92831 whole entry, the tested form may be a part): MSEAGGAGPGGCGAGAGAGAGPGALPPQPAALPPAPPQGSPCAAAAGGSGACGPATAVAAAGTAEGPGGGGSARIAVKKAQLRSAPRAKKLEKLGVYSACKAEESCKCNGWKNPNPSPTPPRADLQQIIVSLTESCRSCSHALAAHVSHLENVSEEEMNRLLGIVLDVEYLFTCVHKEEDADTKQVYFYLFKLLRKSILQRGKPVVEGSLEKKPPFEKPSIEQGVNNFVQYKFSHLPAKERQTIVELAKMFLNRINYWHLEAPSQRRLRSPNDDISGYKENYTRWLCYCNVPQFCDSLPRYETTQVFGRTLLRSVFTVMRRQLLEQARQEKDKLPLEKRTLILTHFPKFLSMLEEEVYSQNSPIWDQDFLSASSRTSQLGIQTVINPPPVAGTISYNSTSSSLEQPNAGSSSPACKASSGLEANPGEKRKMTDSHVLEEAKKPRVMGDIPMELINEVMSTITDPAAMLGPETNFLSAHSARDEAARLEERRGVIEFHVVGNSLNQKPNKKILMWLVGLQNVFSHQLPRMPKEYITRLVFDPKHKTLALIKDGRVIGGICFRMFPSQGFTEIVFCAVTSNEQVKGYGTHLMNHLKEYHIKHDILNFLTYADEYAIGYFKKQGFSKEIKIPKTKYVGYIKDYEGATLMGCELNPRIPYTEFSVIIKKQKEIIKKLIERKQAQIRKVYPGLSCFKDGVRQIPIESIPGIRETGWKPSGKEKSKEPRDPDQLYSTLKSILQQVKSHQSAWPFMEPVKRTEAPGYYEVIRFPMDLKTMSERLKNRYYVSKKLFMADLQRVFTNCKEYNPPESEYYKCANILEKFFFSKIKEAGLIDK

SMILES | viability at 48 h, 10 µM [1] | viability at 48 h, 10 µM [2] | viability at 48 h, 10 µM [3] | NUDT7 [4] | NNMT [5] | OTUB2 [6] | BSA [7] | PCAF [8]
O=C(CCl)NC(=O)NCC1COc2ccccc2O1 (centres unmarked) [PCM-0102092] | 7.6% | 49% | 33.4% | 0 | 0 | 0 | 0 | 0
Cc1csc(CC(=O)NNC(=O)CCl)n1.Cl [PCM-0102095] | 81.9% | 93.3% | 79% | 0 | 0 | 0.51 | 0 | 0
O=C(CCl)NC(=O)NC1CCS(=O)(=O)C1 (centres unmarked) [PCM-0102100] | 99.5% | 101% | 106% | 0 | 0 | 0.09 | 0 | 0
CNC(=O)c1cccc(NC(=O)CCl)c1 [PCM-0102113] | 1.7% | 25.2% | 55% | 0 | 0 | 0 | 0 | 0
O=C(CCl)NC12CC3CC(CC(C3)C1)C2 [PCM-0102118] | 71.1% | 83% | 76.1% | 0 | 0.23 | 0 | 0 | 0
Cc1ccc(NC(=O)NC(=O)CCl)cc1C [PCM-0102119] | 63.3% | 48.8% | 63.5% | 0.09 | 0.57 | 0 | 0 | 0
CC(NC(=O)CCl)c1ccccc1 (centres unmarked) [PCM-0102128] | 84.3% | 84.4% | 85.5% | 0.13 | 0 | 0.42 | 0 | 0
O=C(CCl)Nc1ccccc1N1CCCC1 [PCM-0102135] | 91.3% | 98.5% | 95% | 0 | 0 | 0 | 0 | 0
O=C(CCl)NC1CCS(=O)(=O)C1 (centres unmarked) [PCM-0102138] | 113% | 92.6% | 84.2% | 0 | 0 | 0 | 0 | 0
O=C1CN(C(=O)CCl)C2(CCCCC2)C(=O)N1 [PCM-0102139] | 96.3% | 98.9% | 95.8% | 0.22 | 0 | 0.05 | – | 0
C=CC(=O)Nc1ccc(N2CCCC2=O)cc1 [PCM-0102145] | 91.4% | 101% | 125% | 0 | 0.14 | 0 | 0 | 0
N#CCc1ccc(NC(=O)CCl)cc1 [PCM-0102148] | 2.1% | 11.8% | 32.2% | 0.1 | 0.27 | 0.43 | 0 | 0
O=C(CCl)NCc1ccccc1F [PCM-0102149] | 71.3% | 86.4% | 63.7% | 0 | 0 | 0.62 | 0 | 0
O=C(CCl)Nc1ccccc1Cl [PCM-0102152] | 76.1% | 75.4% | 78.5% | 0 | 0 | 0.2 | 0 | 0
C=CC(=O)Nc1ccc(N(C)C)cc1 [PCM-0102461] | 81.3% | 102% | 111% | 0 | 0.2 | – | 0 | 0
C=CC(=O)N1CCCC1c1cccc2c1OCCO2 (centres unmarked) [PCM-0102489] | 89.9% | 96.3% | 99.1% | 0 | 0 | 0 | – | 0
O=C(CCl)N1CCC(Cc2ccccc2)CC1 [PCM-0102492] | – | – | – | 0.18 | 0.51 | 0.18 | 0 | 0
C=CC(=O)N1CCC(c2nc(C(F)(F)F)c[nH]2)CC1 [PCM-0102513] | 111% | 95.7% | 99.4% | 0 | 0.22 | – | 0 | 0
C=CC(=O)NC1CCCN(C(=O)OC)C1 (centres unmarked) [PCM-0102526] | 90.7% | 101% | 106% | 0 | 0.22 | – | 0 | 0
C=CC(=O)N1CCC(c2nc3cccc(C)c3o2)CC1 [PCM-0102530] | 94% | 108% | 101% | 0 | 0 | 0 | – | 0
C=CC(=O)NCc1ccc2c(c1)C(C)(C)C(=O)N2 [PCM-0102570] | 92% | 107% | 110% | 0 | 0.21 | – | 0 | 0
C=CC(=O)N1CCNC(=O)C1c1cccs1 (centres unmarked) [PCM-0102597] | 81% | 103% | 113% | 0 | 0 | – | 0 | 0
O=C(CCl)Nc1cc2c(cc1Cl)C(=O)c1ccccc1C2=O [PCM-0102757] | 22.5% | 1.4% | 58.4% | 0.12 | 0 | – | 0 | 0
CC1CCC(N(C(=O)CCl)C2CC2)CC1 (centres unmarked) [PCM-0102792] | 6.8% | 11.4% | 8.8% | 0.13 | 0.21 | – | 0 | 0
C=CC(=O)Nc1cccc(OC)c1 [PCM-0102800] | – | – | – | 0 | 0 | 0 | 0 | 0
O=C(CCl)Nc1ccc(N2CCCCC2)nc1 [PCM-0102812] | 4.4% | 32.5% | 61.5% | 0.14 | 0.53 | – | 0 | 0
O=C(CCl)Nc1ccc2c(c1)NC(=O)CO2 [PCM-0102890] | – | – | – | 0.08 | 0.22 | 0.32 | 0 | 0
C=CC(=O)Nc1cccc(F)c1 [PCM-0102922] | – | – | – | 0 | 0 | 0 | 0.19 | 0
N#Cc1ccc(CNC(=O)CCl)cc1 [PCM-0102946] | 88.1% | 85% | 74.8% | 0 | 0.23 | 0.35 | – | 0
O=C(CCl)N1CCN(C(=O)C2CC2)CC1 [PCM-0102970] | 66.6% | 83.8% | 72.5% | 0.07 | 0 | 0 | – | 0
